Measurements reported in paper PMC9112895, “Selective Inhibition of Plasmodium falciparum ATPase 6 by Artemisinins and Identification of New Classes of Inhibitors after Expression in Yeast” (Antimicrobial Agents and Chemotherapy, 2022).

Molecular target: T1, S769N PfATP6 (Plasmodium falciparum, UniProt Q08853, S769N)
T1 construct: expressed in transfected cells; host or cells: Saccharomyces cerevisiae K667-derived strain
T1 sequence (Q08853 1-1228 S769N): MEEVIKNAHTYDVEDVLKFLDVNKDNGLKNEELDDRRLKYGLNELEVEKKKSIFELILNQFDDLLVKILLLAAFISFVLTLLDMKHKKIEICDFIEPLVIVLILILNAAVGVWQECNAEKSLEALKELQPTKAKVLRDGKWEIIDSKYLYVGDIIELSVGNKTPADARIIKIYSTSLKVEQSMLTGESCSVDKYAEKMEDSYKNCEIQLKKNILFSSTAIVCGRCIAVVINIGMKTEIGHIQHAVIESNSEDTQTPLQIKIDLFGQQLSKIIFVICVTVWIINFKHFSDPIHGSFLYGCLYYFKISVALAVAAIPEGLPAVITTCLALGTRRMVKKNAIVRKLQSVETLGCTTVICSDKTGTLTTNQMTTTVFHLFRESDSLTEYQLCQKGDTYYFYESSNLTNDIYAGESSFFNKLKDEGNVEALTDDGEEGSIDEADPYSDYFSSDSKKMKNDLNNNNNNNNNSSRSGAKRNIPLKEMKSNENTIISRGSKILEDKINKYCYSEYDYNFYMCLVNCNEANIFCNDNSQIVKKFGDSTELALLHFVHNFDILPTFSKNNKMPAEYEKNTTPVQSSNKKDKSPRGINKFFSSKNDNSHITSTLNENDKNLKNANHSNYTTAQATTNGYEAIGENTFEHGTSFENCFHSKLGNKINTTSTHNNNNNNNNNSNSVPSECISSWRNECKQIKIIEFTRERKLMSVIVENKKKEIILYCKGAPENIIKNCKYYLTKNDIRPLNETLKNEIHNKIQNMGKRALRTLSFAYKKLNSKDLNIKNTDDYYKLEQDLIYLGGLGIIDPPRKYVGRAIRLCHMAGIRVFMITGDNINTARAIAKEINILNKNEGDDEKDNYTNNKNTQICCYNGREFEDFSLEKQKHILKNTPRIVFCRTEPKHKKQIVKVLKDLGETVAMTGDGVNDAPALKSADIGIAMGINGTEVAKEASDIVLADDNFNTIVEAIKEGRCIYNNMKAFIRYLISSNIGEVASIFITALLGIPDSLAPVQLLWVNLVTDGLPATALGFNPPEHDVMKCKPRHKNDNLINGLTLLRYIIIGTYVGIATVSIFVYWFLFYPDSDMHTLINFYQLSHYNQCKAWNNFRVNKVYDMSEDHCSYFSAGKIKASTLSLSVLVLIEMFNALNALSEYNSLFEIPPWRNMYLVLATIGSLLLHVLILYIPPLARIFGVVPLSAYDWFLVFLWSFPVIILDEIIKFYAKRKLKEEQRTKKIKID
Experiment: Yeast whole-cell assay, PfATP6 S769N mutant
Type: cell-based
Details: read-out: IC50 (mean ± SD)
Procedure: Yeast transformations were performed using the method described by Gietz and Schiestl ([48]), and transformants were selected by an uracil auxotrophic marker. Transformations were confirmed by colony PCR. Both K667 and K667Δpdr5::HIS were transformed with the following plasmids: pUGpd plasmid as a vector-only control (derived from pRS316 [49]); br434 plasmid (derived from pRS316 [50]) containing the SERCA1a coding region from rabbit skeletal fast-twitch muscle (pbr434-SERCA1a); and pUGpd containing the yeast-optimized coding region of PfATP6 from Plasmodium falciparum (pUGpd-PfATP6). Site-directed mutagenesis was performed on the SERCA1a coding region to produce the mutation E255L in the protein. Mutations were also introduced into the PfATP6 coding region to produce mutations L263E, A623E, and S769N and the double mutation A623E/S769N ([13]).
The screening assay used here was developed from the protocol used by Pulcini et al. ([13]). […] The optimal calcium concentration was periodically monitored and, if necessary, adjusted using a calcium concentration range of 10 to 30 mM. […] The yeast growth was estimated from the absorbance at 620 nm in a Tecan plate reader. […] The data collected were analyzed using GraphPad Prism v9.0 (GraphPad software, San Diego, CA, U.S.A).

Work on `CC(=O)C1=C(O)[C@@H]2[C@H]3c4c[nH]c5cccc(c45)C[C@H]3C(C)(C)N2C1=O` [CPA, cyclopiazonic acid] yielded an IC50 of 6.49 µM.
